# PMC5781198 (Influenza and Other Respiratory Viruses, 2013)
# “Also recorded” adds a separate entry of the source.
# How the values were obtained:
# [1] = system: A/Puerto Rico/05/2011 NA (D199N); format: biochemical, Influenza A(H1N1)pdm09 virus
# [2] = system: A/Bolivia/603/2011 NA (D151G); format: biochemical, Influenza A(H3N2) virus
# [3] = system: B/Ontario/006876/2011 NA (H273Y); conditions: cited from earlier work
# [4] = system: A/Alberta/RV1242/2011 NA (H275H/Y, D199D/N); format: biochemical, Influenza A(H1N1)pdm09 virus
# [5] = system: A/Santiago/14689/2011 NA (N325K); format: biochemical, Influenza A(H1N1)pdm09 virus
# [6] = system: A/Dominican Republic/5507/2011 NA (S247N); format: biochemical, Influenza A(H1N1)pdm09 virus
# [7] = target: B/Kenya/9528/2011 NA (M403V) (Influenza B virus, UniProt P27907, M402V); format: biochemical, Influenza B virus (Victoria)
# [8] = system: A/Bolivia/258/2011 NA (D199N); format: biochemical, Influenza A(H1N1)pdm09 virus
# [9] = system: B/British Columbia/RV1383/2011 NA (T106N); format: biochemical, Influenza B virus (Yamagata)
# [10] = system: A/Santiago/15706/2011 NA (G460S); format: biochemical, Influenza A(H1N1)pdm09 virus
# [11] = system: B/Bangladesh/4013/2011 NA (A136S); format: biochemical, Influenza B virus (Victoria)
# [12] = target: B/Dominican Republic/5506/2011 NA (H273Y) (Influenza B virus, UniProt P27907, H272Y); format: biochemical, Influenza B virus (Victoria)
# [13] = system: A/Vietnam/108/2011 NA (F174V); format: biochemical, Influenza A(H1N1)pdm09 virus
# [14] = target: B/Bangladesh/8008/2011 NA (I120V) (Influenza B virus, UniProt P27907, I119V); format: biochemical, Influenza B virus (Victoria)
# [15] = target: B/Ontario/006876/2011 NA (H273Y) (Influenza B virus, UniProt P27907, H272Y); format: biochemical, Influenza B virus (Yamagata)
# [16] = target: B/Guatemala/16/2011 NA (S244P) (Influenza B virus, UniProt P27907, S243P); format: biochemical, Influenza B virus (Victoria)
# [17] = target: B/Ontario/1256/2011 NA (G140R, N144K) (Influenza B virus, UniProt P27907, G140R/N143K); format: biochemical, Influenza B virus (Victoria)
smiles,measurement,setting,value
"CCC(CC)[C@H](NC(C)=O)[C@@H]1[C@H](O)[C@@H](C(=O)O)C[C@H]1N=C(N)N [Peramivir, peramivir]",fold difference in IC50,[1],0·21 (4) fold
same,fold difference in IC50,[2],0·08 (1) fold
same,susceptibility in words,[3],reduced susceptibility
same,IC50 relative to isolate A/Puerto Rico/09/2011 (dominant H275Y),[4],approximately threefold less; also recorded: three times less resistant
same,susceptibility in words,[5],mildly reduced sensitivity
same,fold difference in IC50,[6],0·15 (3) fold
same,fold difference in IC50,[7],3·59 (4) fold
same,fold difference in IC50,[8],0·09 (2) fold
same,fold difference in IC50,[9],0·85 (2) fold
same,fold difference in IC50,[10],0·26 (4) fold
same,fold difference in IC50,[11],4·77 (6) fold
same,fold difference in IC50,[12],12·43 (15) fold
same,fold greater IC50 than the mean IC50 for the drug for all B viruses,[12],16 fold
same,fold difference in IC50,[13],0·06 (1) fold
same,fold difference in IC50,[14],4·36 (5) fold
same,fold difference in IC50,[15],33·49 (62) fold
same,fold greater IC50 than the mean IC50 for the drug for all B viruses,[15],44 fold
same,fold difference in IC50,[16],0·60 (1) fold
same,susceptibility in words,[16],sensitive
same,fold difference in IC50,[17],210·68 (257) fold
same,fold greater IC50 than the mean IC50 for the drug for all B viruses,[17],277 fold
same,susceptibility in words,[17],significantly reduced susceptibility
"CC(=O)N[C@H]1[C@H]([C@H](O)[C@H](O)CO)OC(C(=O)O)=C[C@@H]1N=C(N)N [Zanamivir, zanamivir]",susceptibility in words,[5],mildly reduced sensitivity
same,susceptibility in words,[16],mild outlier
same,susceptibility in words,[17],significantly reduced susceptibility
